Assay results taken from patent US9403866B2, “Compositions and methods for increasing telomerase activity” (Telomerase Activation Sciences, Inc., priority 2009, dated 2016).
Like-named read-outs stand apart in the source and are kept apart here.

Columns and labels:
[1] = set-up: species or system male Beagle dogs; details: male, Beagle, dog, in vivo, po, 10 mg/kg
Method: The plasma level of a compound following a single intravenous and oral administration in male Beagle dogs was determined. Plasma samples were collected and used to determine the plasma concentration of the compound and metabolites. In addition tissue samples, including whisker samples and PBMC cells were collected for telomerase activity analysis.
(§1) Male Beagle dogs were divided into treatment groups according to Table 5. The dogs were provided ad libitum SLAC-MO1 #W080701 (Shanghai Laboratories Animal Center, Shanghai, China) throughout the in-life portion of the study with the exception of the overnight fasting period prior to oral dosing. Water was available ad libitum.
The compounds were dissolved in 2% EtOH/98% water […] to yield a final concentration of 2.5 mg/ml and 1 mg/ml for both intravenous and oral administration, respectively. The concentration of each compound was confirmed by HPLC analysis.
Doses were administered intravenously via the left femoral vein and then by oral dosing one week later. Body weights were taken on the day of dose administration. Dose volume was determined based on individual body weight taken on day of dosing.
(§2) Blood samples (approximately 250 μL) were collected via right femoral vein into tubes containing K2-EDTA anticoagulant and 1 mg/ml NaF at appropriate time points. Blood was stored on ice and then plasma separated via centrifugation (8000 rpm×6 minutes). The plasma was stored at […] until LC-MS/MS analysis.

SAECs = experiment: Long-term replicative capacity of SAECs in continuous culture; type: cell-based, human; details: 0.1 μM, 60 days continuous culture
Method: SAECs were treated continuously with 0.1 μM of compound 4 in a final concentration of 0.004% ethanol for 60 days in continuous culture. Compound 4 increased the long-term replicative capacity of SAECs by about 2 population doublings (4× increase in calculated cell number).

[2] = Plasma levels and bioavailability in mice; type: in vivo, male C57BL/6 mice; details: male, C57BL/6, mouse, 10 mg/kg, 2% EtOH/98% water, read-out: Bioavailability % F
Method: The plasma levels of a compound following a single intravenous, oral, intra-peritoneal, or sub-cutaneous administration in male C57BL/6 mice was determined. Plasma samples were collected and used to determine the plasma concentration of the compound and metabolites. In addition tissue samples, including whisker samples, and peripheral blood mononuclear cells (PBMC) cells were collected for telomerase activity analysis.
as §1, with “[…] mice” for “Male Beagle dogs”, “groups.” for “groups according to Table 5.”, “mice” for “dogs”, “#W080208” for “#W080701”
Body weights were taken on the day of dose administration. Dose volume was determined based on individual body weight taken on day of dosing.
as §2, with “300” for “250”, “cardiac puncture or via retro-orbital puncture after anesthesia” for “right femoral vein”, “the various” for “appropriate”, “points after dosing.” for “points.”

lung fibroblasts = experiment: Alamar Blue Proliferation Assay in lung fibroblasts; type: cell-based, human; details: 3 days
Method: Human SAECs or human fibroblasts were grown in the presence of different concentrations of compound 4 in a final concentration of 1% DMSO in the medium. After 3 days the cells were harvested and proliferation was measured using the Alamar Blue Proliferation Assay.

huCD34+ cells = experiment: Colony formation assay of huCD34+ cells; type: cell-based, human; details: 100 nM, 14 days
Method: Human hematopoietic progenitor CD34+ cells (healthy donor) were plated into a standard colony formation assay in the presence of compound 4 (100 nM), vehicle (0.1% DMSO), or nothing. After 14 days, hematopoietic colonies were enumerated (CFU-E, […], CFU-GM, and CFU-GEMM). The plates containing compound 4 had 17% more colony forming units than vehicle alone. (Total colony counts were: untreated, 106.5; vehicle-treated, 103.5; compound 4-treated, 121.5)

**Q.** For `CC(C)C(N)C(=O)OC1CCC23CC24CCC2(C)C(C5(C)CCC(C(C)(C)O)O5)C(O)CC2(C)C4CC(O)C3C1(C)C` (stereo not drawn) [Compound 4, 2-(L)-Amino-3-methyl-butyric acid 6α,16β-dihydroxy-17-[5-(1-hydroxy-1-methyl-ethyl)-2-methyl-tetrahydro-furan-2-yl]-4,4,13,14-tetramethyl-tetradecahydro-cyclopropa[9,10]cyclopenta[a]phenanthren-3β-yl ester], which “Bioavailability % F” value [1] is on record?
**A.** The value was 47%.

**Q.** And the “increase in calculated cell number” value (SAECs)?
**A.** The value was 4 ×.

**Q.** What about the “increase of long-term replicative capacity” value (SAECs; 0.004% ethanol) of the same compound?
**A.** Its value is “about 2 population doublings”.

**Q.** What about the bioavailability ([2]; PO) of the same compound?
**A.** The bioavailability was 48%.

**Q.** What about the bioavailability ([2]; SC) of the same compound?
**A.** The bioavailability was 66%.

**Q.** What about the “effect on short-term proliferation” value (lung fibroblasts) of the same compound?
**A.** Its value is “No effect”.

**Q.** And the BFU-E colonies (huCD34+ cells)?
**A.** Its BFU-E colonies is 25.5.

**Q.** And the CFU-E colonies (huCD34+ cells)?
**A.** The CFU-E colonies was 11.

**Q.** What about the CFU-GEMM colonies (huCD34+ cells) of the same compound?
**A.** The CFU-GEMM colonies was 5.

**Q.** What about the CFU-GM colonies (huCD34+ cells) of the same compound?
**A.** Its CFU-GM colonies is 80.

**Q.** And the Total colony counts (huCD34+ cells)?
**A.** Its Total colony counts is 121.5.

**Q.** And the “more colony forming units than vehicle alone” value (huCD34+ cells)?
**A.** Its value is 17%.
